Values of other authors as cited in patent publication US20120189739A1, “Naturally-Sweetened Reduced-Calorie Base Syrup Compositions and Compositions Sweetened Therewith” (IMPERIAL SUGAR COMPANY, priority 2010, published 2012).

Settings: Prakash et al. 2008; Kinghorn et al. 1999

Compound	times sweeter than sucrose
C=C1C[C@@]23CC[C@H]4[C@@](C)(CCC[C@@]4(C)C(=O)O[C@@H]4O[C@H](CO)[C@@H](O)[C@H](O)[C@H]4O)[C@@H]2CC[C@]1(O[C@@H]1O[C@H](CO)[C@@H](O)[C@H](O[C@@H]2O[C@H](CO)[C@@H](O)[C@H](O)[C@H]2O)[C@H]1O[C@@H]1O[C@H](CO)[C@@H](O)[C@H](O)[C@H]1O)C3 [rebaudioside A]	200-300 times
C=C1C[C@@]23CC[C@H]4[C@@](C)(CCC[C@@]4(C)C(=O)O[C@@H]4O[C@H](CO)[C@@H](O)[C@H](O)[C@H]4O)[C@@H]2CC[C@]1(O[C@@H]1O[C@H](CO)[C@@H](O)[C@H](O)[C@H]1O[C@@H]1O[C@H](CO)[C@@H](O)[C@H](O)[C@H]1O)C3 [stevioside]	about 200 times
